# Test results reported in patent US20050075400A1, “Polymorphic forms of nateglinide” (priority 2002, published 2005).
# Like-named read-outs stand apart in the source and are kept apart here.
# Assays:
# [1] = Thermal stability / form transformation on heating or drying (XRPD); assay type: physicochemical; conditions: for form obtained upon drying / heating: heating under ambient or reduced pressure, generally about 40-80° C.; for form after heating at about 100° C.: 100° C. oil bath, 8.5 h; for form after heating at about 100° C. / form after heating at 120° C.: XRPD; for form after heating at 120° C.: 1 h, atmospheric pressure
# Protocol: The various crystalline forms are related to each other in that drying of one form may result in a transformation to another form, namely nateglinide Forms A, B, D, E, F, G, H, I, J, K, L, M, N, Q, S, T, V, Z, α, β, δ, γ, ε, θ and Ω. The drying is carried out by heating a sample under ambient or reduced pressure. Generally, a preferred temperature is from about 40° C. to about 80° C., more preferably under reduced pressure. […] The term “stable” as used herein refers to a polymorphic change of less than about 5% by weight, more preferably less than about 2%, particularly for Form δ.
# Sample of nateglinide form U (˜1 g) was introduced into a 6-gram vial and heated over 8.5 h in a 100° C. oil bath. The vial were extracted from the bath.
# Sample of nateglinide form U (˜0.5 g) was heated to 120° C. for 1 h in an atmospheric pressure.
# Sample of nateglinide form δ (˜0.5 g) was heated to 120° C. for 1 h in an atmospheric pressure.
# [2] = Absorption of solvent vapors by nateglinide Form H; assay type: physicochemical; conditions: for Δ (overweight): room temperature, 4 d
# Protocol: Nateglinide (3.50 g) was added to a polypropylene can and weighed. The can was introduced into a bigger polypropylene container containing a solvent, and stored at room temperature. The can was removed from the container and weighed (Wfinal). The can content was divided into 2 portions. One portion was dried at a temperature of 55° C. and a pressure of 20-30 mmHg to constant weight (±0.01 g).
# [3] = Polymorphic stability on storage at room temperature for 24 h (XRPD); assay type: physicochemical; conditions: for crystal form after storage at RT for 24 h: room temperature and pressure, 24 h (about a day), open bottle, XRPD
# Protocol: The various crystalline forms are also analyzed by Thermal Gravimetric Analysis (TGA). […] In contrast to the above listed forms, TGA profiles of forms L, P, U, α, δ and σ show no significant weight loss. These polymorphic forms of nateglinide are free of bound solvents, i.e., less than about 2% LOD. Table II lists the solvents used for the preparation for nateglinide solvated forms, as well as LOD values based on TGA analysis.
# Storage at room temperature and pressure may also cause a transition of one form to another.
# X-Ray diffraction was performed on X-Ray powder diffractometer, Scintag variable goniometer, Cu-tube, solid state detector. Sample holder: A round standard aluminum sample holder with round zero background quartz plate.
# The sample was put on the sample holder and immediately analyzed as is. Scanning parameters: Range: 2-40 deg 2θ, Continuos Scan, Rate: 3 deg./min.
# [4] = cited from earlier work
# [5] = demonstrated by DSC; cited from earlier work
# [6] = Stability at about 40° C. and about 75% relative humidity; assay type: physicochemical; conditions: about 40° C., relative humidity about 75%
# Protocol: Crystalline Form δ is stable at a temperature of about 40° C. and a relative humidity of about 75% for at least about 3 months.
compound,measurement,setting,value
"CC(C)[C@H]1CC[C@H](C(=O)N[C@H](Cc2ccccc2)C(=O)O)CC1 [Form H, nateglinide]",thermal stability (conversion to another form upon heating),[1],thermally stable
same,Δ (overweight),"[2]; Acetone vapors, 3.50 g NTG",0.08
same,Δ (overweight),"[2]; DCM vapors, 3.49 g NTG",0.04
same,Δ (overweight),"[2]; EtOH vapors, 3.50 g NTG",0.52
same,Δ (overweight),"[2]; MeOH vapors, 3.50 g NTG",0.18
same,Δ (overweight),"[2]; Water vapors, 3.50 g NTG",0.02
same,stability in the presence of solvent vapors,[2]; vapors of water and acetone,stable
"CC(C)[C@H]1CC[C@H](C(=O)N[C@H](Cc2ccccc2)C(=O)O)CC1 [Form G, nateglinide]",form obtained upon drying / heating,[1],convert to Form B
"CC(C)[C@H]1CC[C@H](C(=O)N[C@H](Cc2ccccc2)C(=O)O)CC1 [Form σ, nateglinide]",thermal stability (conversion to another form upon heating),[1],thermally stable
"CC(C)[C@H]1CC[C@H](C(=O)N[C@H](Cc2ccccc2)C(=O)O)CC1 [Form β, nateglinide]",form obtained upon drying / heating,[1],convert to Form B
"CC(C)[C@H]1CC[C@H](C(=O)N[C@H](Cc2ccccc2)C(=O)O)CC1 [Form U, nateglinide]",thermal stability (conversion to another form upon heating),[1],thermally stable
same,form after heating at about 100° C.,[1],does not undergo a transition
same,form after heating at about 100° C.,[1]; listed as form U,Form U
same,form after heating at 120° C.,[1],Form U
"CC(C)[C@H]1CC[C@H](C(=O)N[C@H](Cc2ccccc2)C(=O)O)CC1 [nitromethane solvates of Form Epsilon, nateglinide]",form obtained upon drying / heating,[1],Forms H or P
"CC(C)[C@H]1CC[C@H](C(=O)N[C@H](Cc2ccccc2)C(=O)O)CC1 [Form L, nateglinide]",thermal stability (conversion to another form upon heating),[1],thermally stable
"CC(C)[C@H]1CC[C@H](C(=O)N[C@H](Cc2ccccc2)C(=O)O)CC1 [Form N, nateglinide]",form obtained upon drying / heating,[1],Form L
"CC(C)[C@H]1CC[C@H](C(=O)N[C@H](Cc2ccccc2)C(=O)O)CC1 [Form Ω, nateglinide]",form after drying in a vacuum oven,"[1]; 50° C., vacuum oven, overnight, XRD",mixture of Form omega and Form Z
same,form obtained upon drying / heating,[1],convert to Form B
"CC(C)[C@H]1CC[C@H](C(=O)N[C@H](Cc2ccccc2)C(=O)O)CC1 [Form I, nateglinide]",crystal form after storage at RT for 24 h,[3],converts to Form L
same,crystal form after storage at RT for 24 h,[3]; listed as I,Form L
"CC(C)[C@H]1CC[C@H](C(=O)N[C@H](Cc2ccccc2)C(=O)O)CC1 [Form T, nateglinide]",crystal form after storage at RT for 24 h,[3],converts to Form E
same,crystal form after storage at RT for 24 h,[3]; listed as T,Form E
same,form obtained upon drying / heating,[1],convert to a mixture of Form B and G
"CC(C)[C@H]1CC[C@H](C(=O)N[C@H](Cc2ccccc2)C(=O)O)CC1 [nateglinide, (−)—N-(trans-4-isopropylcyclohexanecarbonyl)-D-Phenylalanine]",solubility,[4]; in acetonitrile,sparingly soluble
same,solubility,[4]; in chloroform,freely soluble
same,solubility,[4]; in ethanol,freely soluble
same,solubility,[4]; in ether,soluble
same,solubility,[4]; in methanol,freely soluble
same,solubility,[4]; in octanol,sparingly soluble
same,solubility,[4]; in water,practically insoluble
"CC(C)[C@H]1CC[C@H](C(=O)N[C@H](Cc2ccccc2)C(=O)O)CC1 [Form Z, nateglinide]",form obtained upon drying / heating,[1],convert to Form B
"CC(C)[C@H]1CC[C@H](C(=O)N[C@H](Cc2ccccc2)C(=O)O)CC1 [Form θ, nateglinide]",form obtained upon drying / heating,[1],convert to Form B
"CC(C)[C@H]1CC[C@H](C(=O)N[C@H](Cc2ccccc2)C(=O)O)CC1 [Form A, nateglinide]",crystal form after storage at RT for 24 h,[3],partially converts to Form B
same,crystal form after storage at RT for 24 h,[3]; listed as A,conversion to Form B
same,form obtained upon drying / heating,[1],convert to Form B
same,form obtained upon drying / heating,[1]; listed as Form a,Form S
"CC(C)[C@H]1CC[C@H](C(=O)N[C@H](Cc2ccccc2)C(=O)O)CC1 [Form α, nateglinide]",thermal stability (conversion to another form upon heating),[1],somewhat stable
same,form obtained upon drying / heating,[1],convert to Form B
"CC(C)[C@H]1CC[C@H](C(=O)N[C@H](Cc2ccccc2)C(=O)O)CC1 [Form F, nateglinide]",form obtained upon drying / heating,[1],convert to a mixture of Form B and G
"CC(C)[C@H]1CC[C@H](C(=O)N[C@H](Cc2ccccc2)C(=O)O)CC1 [acetonitrile solvate of Form Epsilon, nateglinide]",form obtained upon drying / heating,[1],Form B
"CC(C)[C@H]1CC[C@H](C(=O)N[C@H](Cc2ccccc2)C(=O)O)CC1 [Form M, nateglinide]",form obtained upon drying / heating,[1],Form L
"CC(C)[C@H]1CC[C@H](C(=O)N[C@H](Cc2ccccc2)C(=O)O)CC1 [Form V, nateglinide]",form obtained upon drying / heating,[1],Form H
"CC(C)[C@H]1CC[C@H](C(=O)N[C@H](Cc2ccccc2)C(=O)O)CC1 [Form C, nateglinide]",form obtained upon drying / heating,[1],convert to Form B
"CC(C)[C@H]1CC[C@H](C(=O)N[C@H](Cc2ccccc2)C(=O)O)CC1 [Form B, nateglinide]",stability during grinding,[5],unstable and susceptible to change during grinding
same,thermal stability (conversion to another form upon heating),[1],thermally stable
"CC(C)[C@H]1CC[C@H](C(=O)N[C@H](Cc2ccccc2)C(=O)O)CC1 [Form δ, nateglinide]",thermal stability (conversion to another form upon heating),[1],somewhat stable
same,polymorph after drying in a stirred reactor,"[1]; 60 mmHg vacuum, 60° C., 6 hours",remained delta form
same,stability when heated to 60° C. overnight,"[1]; 60° C., overnight (at least about 8 hours)",stable
same,form after heating at 120° C.,[1],results in Form B
same,form after heating at 120° C.,[1]; listed as form δ,Form B
same,polymorphic form after drying in a fluidized bed drier,[1]; 4 hours at 60° C.,delta
same,form obtained upon drying / heating,[1],convert to Form B
same,time for which the crystalline form is stable,[6],at least 3 months
"CC(C)[C@H]1CC[C@H](C(=O)N[C@H](Cc2ccccc2)C(=O)O)CC1 [Form E, nateglinide]",form obtained upon drying / heating,[1],convert to Form B
"CC(C)[C@H]1CC[C@H](C(=O)N[C@H](Cc2ccccc2)C(=O)O)CC1 [Form O, nateglinide]",thermal stability (conversion to another form upon heating),[1],somewhat stable
"CC(C)[C@H]1CC[C@H](C(=O)N[C@H](Cc2ccccc2)C(=O)O)CC1 [Form J, nateglinide]",XRD pattern after storage at RT for overnight,"[3]; room temperature, overnight",XRD pattern slightly
same,form obtained upon drying / heating,[1],convert to Form B
"CC(C)[C@H]1CC[C@H](C(=O)N[C@H](Cc2ccccc2)C(=O)O)CC1 [Form Y, nateglinide]",thermal stability (conversion to another form upon heating),[1],somewhat stable
"CC(C)[C@H]1CC[C@H](C(=O)N[C@H](Cc2ccccc2)C(=O)O)CC1 [Form ε, nateglinide]",form obtained upon drying / heating,[1],Form H
"CC(C)[C@H]1CC[C@H](C(=O)N[C@H](Cc2ccccc2)C(=O)O)CC1 [Form Q, nateglinide]",crystal form after storage at RT for 24 h,[3],converts to Form Y
same,crystal form after storage at RT for 24 h,[3]; listed as Q,"Form Y, which contains"
same,form obtained upon drying / heating,[1],convert to Form B
